ChEMBL document CHEMBL5046234, “Discovery of novel TrkA allosteric inhibitors: Structure-based virtual screening, biological evaluation and preliminary SAR studies” (Eur J Med Chem, 2022)
Blank lines part the entries; values can stand above or below the compound they belong to.

Tests used:
BaF3 [1] = experiment: Antiproliferative activity against mouse BaF3 cells expressing CD74 fused TRKA assessed as cell growth inhibition incubated for 72 hrs by CCK8 assay; format: functional, cell-based; details: BaF3, 72 h
[2] = target: BDNF/NT-3 growth factors receptor (Homo sapiens, UniProt Q16620); experiment: Inhibition of TRKB (unknown origin) by PathHunter Enzyme Fragment Complementation assay
BDNF/NT-3 growth factors receptor, sequence (Q16620 whole entry, the tested form may be a part): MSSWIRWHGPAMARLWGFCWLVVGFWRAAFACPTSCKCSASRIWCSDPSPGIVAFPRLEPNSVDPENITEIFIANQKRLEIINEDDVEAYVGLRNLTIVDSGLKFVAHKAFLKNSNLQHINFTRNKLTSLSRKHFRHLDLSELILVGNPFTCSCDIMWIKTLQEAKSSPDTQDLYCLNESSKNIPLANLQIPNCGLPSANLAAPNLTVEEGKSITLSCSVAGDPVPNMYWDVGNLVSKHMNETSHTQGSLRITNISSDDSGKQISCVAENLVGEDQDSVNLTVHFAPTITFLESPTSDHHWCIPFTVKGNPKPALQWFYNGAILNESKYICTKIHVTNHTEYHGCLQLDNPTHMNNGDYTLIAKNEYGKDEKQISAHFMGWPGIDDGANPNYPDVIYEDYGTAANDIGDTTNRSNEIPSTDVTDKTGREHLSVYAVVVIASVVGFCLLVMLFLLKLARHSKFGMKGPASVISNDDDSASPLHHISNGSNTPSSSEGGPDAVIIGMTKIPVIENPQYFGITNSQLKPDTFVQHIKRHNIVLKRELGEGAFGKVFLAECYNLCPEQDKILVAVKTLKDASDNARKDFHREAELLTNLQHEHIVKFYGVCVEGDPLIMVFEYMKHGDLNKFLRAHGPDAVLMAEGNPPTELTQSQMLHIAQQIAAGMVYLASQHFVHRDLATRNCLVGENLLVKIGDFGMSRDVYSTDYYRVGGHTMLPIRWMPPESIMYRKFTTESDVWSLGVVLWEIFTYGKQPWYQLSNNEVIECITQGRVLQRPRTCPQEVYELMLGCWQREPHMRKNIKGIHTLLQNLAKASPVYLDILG

BaF3 [3] = experiment: Antiproliferative activity against mouse BaF3 cells expressing QKI fused TRKB assessed as cell growth inhibition incubated for 72 hrs by CCK8 assay; format: functional, cell-based; details: BaF3, 72 h
[4] = target: High affinity nerve growth factor receptor (Homo sapiens) (UniProt P04629); experiment: Inhibition of CD74 fused TRKA (unknown origin) expressed in mouse BaF3 cells assessed as inhibition of AKT phosphorylation by western blot analysis; format: cell-based; details: dose 0.08-50 µM
High affinity nerve growth factor receptor (Homo sapiens), sequence (P04629 33-796 limits assumed): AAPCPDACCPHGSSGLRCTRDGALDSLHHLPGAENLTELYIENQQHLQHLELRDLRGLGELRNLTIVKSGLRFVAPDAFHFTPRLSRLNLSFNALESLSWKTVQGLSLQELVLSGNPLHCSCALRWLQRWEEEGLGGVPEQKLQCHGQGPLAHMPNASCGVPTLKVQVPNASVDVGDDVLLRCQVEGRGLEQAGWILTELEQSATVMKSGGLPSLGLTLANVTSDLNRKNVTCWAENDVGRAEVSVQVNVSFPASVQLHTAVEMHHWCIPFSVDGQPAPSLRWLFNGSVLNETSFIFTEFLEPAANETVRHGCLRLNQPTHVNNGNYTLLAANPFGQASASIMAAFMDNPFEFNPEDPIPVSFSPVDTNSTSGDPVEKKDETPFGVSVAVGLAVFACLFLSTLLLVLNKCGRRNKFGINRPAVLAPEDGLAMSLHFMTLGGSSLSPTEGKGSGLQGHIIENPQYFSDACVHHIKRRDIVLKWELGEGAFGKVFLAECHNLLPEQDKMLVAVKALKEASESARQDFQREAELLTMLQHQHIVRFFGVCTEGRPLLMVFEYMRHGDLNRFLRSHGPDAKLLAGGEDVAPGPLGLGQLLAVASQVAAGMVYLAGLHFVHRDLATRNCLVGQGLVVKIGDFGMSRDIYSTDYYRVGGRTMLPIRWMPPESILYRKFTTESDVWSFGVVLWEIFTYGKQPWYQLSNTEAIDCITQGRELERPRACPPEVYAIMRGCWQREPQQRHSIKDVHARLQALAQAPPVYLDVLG

BaF3 [5] = experiment: Antiproliferative activity against mouse BaF3 cells expressing MPRIP fused TRKA assessed as cell growth inhibition incubated for 72 hrs by CCK8 assay; format: functional, cell-based; details: BaF3, 72 h
[6] = target: High affinity nerve growth factor receptor (Homo sapiens) (UniProt P04629); experiment: Inhibition of CD74 fused TRKA (unknown origin) expressed in mouse BaF3 cells assessed as inhibition of ERK phosphorylation by western blot analysis; format: cell-based
[7] = target: High affinity nerve growth factor receptor (Homo sapiens) (UniProt P04629); experiment: Inhibition of CD74 fused TRKA (unknown origin) expressed in mouse BaF3 cells assessed as inhibition of PLCgamma1 phosphorylation by western blot analysis; format: cell-based; details: dose 0.08-50 µM
BaF3 [8] = experiment: Antiproliferative activity against mouse BaF3 cells expressing EML4 fused TRKC assessed as cell growth inhibition incubated for 72 hrs by CCK8 assay; format: functional, cell-based; details: BaF3, 72 h
BaF3 [9] = experiment: Antiproliferative activity against mouse BaF3 cells assessed as cell growth inhibition incubated for 72 hrs by CCK8 assay; format: functional, cell-based; details: BaF3, 72 h
[10] = target: High affinity nerve growth factor receptor (Homo sapiens) (UniProt P04629); experiment: Inhibition of CD74 fused TRKA (unknown origin) autophosphorylation expressed in mouse BaF3 cells by western blot analysis; format: cell-based; details: dose 0.08-50 µM

SMILES: Cc1ccc(C(=O)Nc2ccc(N3CCCC3=O)nc2)cc1N1CCCC1=O
- IC50 (BaF3 [1]): 7.23 µM

SMILES: Cc1ccc(C(=O)Nc2ccc(N3CCN(C4CCCC4)C3=O)nc2)cc1N1CCCC1=O
- IC50 (BaF3 [1]): 2.91 µM
- IC50 (BaF3 [3]): 6.17 µM
- inhibition [4]: Dose-Dependent Effect
- IC50 (BaF3 [5]): 3.32 µM
- inhibition [6]: Dose-Dependent Effect
- inhibition [7]: Dose-Dependent Effect
- IC50 (BaF3 [8]): > 10 µM
- IC50 (BaF3 [9]): > 10 µM
- inhibition [10]: Dose-Dependent Effect

SMILES: CN1CCN(c2ccc(NC(=O)c3ccc(Cl)c(N4CCCC4=O)c3)cn2)CC1
- IC50 (BaF3 [1]): 1.55 µM

SMILES: Cc1ccc(C(=O)Nc2ccc(N3CCN(C)CC3)nc2)cc1N1CCCC1=O
- IC50 (BaF3 [1]): 1.99 µM

The remaining lines, values ahead:

- IC50 (BaF3 [1]): 1.83 µM
SMILES: CN1CCN(c2ccc(NC(=O)c3cc(N4CCCC4=O)c(Cl)cc3Cl)cn2)CC1

- IC50 [2]: 81 µM
SMILES: Cc1ncc(NC(=O)NC2c3ccccc3-c3ccccc32)c(-c2ccccc2)n1

- IC50 (BaF3 [1]): > 10 µM
SMILES: CN1CCN(c2cc(-c3ccccc3)c(NC(=O)c3cc(N4CCCC4=O)c(Cl)cc3Cl)cn2)CC1
